Assay [1] has as its target T1, nuclear receptor for 1α,25(OH)2 D3 [VDRnuc] (Gallus gallus, UniProt O42392).
T1 construct: VDRnuc receptor preparation from chick intestine mucosa; from tissue; host or cells: chick intestinal mucosa
T1 sequence (O42392 1-451): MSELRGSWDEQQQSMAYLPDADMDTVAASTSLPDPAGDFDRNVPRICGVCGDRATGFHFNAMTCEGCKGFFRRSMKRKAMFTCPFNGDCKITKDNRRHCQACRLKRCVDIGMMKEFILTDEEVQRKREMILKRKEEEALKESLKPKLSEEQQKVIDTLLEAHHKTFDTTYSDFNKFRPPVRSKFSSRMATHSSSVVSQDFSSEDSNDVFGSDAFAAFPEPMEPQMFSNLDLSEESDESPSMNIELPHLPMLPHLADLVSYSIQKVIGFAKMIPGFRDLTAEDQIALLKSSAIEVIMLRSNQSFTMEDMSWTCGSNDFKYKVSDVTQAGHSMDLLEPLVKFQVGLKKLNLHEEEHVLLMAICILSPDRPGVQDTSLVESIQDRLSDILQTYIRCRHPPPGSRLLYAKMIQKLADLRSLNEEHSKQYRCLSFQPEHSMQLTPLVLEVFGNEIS
The experiment in a line: Relative Competitive Index (steroid competition) assay, nuclear receptor VDRnuc. Format: binding, chick. The arrangement: key to Nuclear 1α,25-D Receptor (RCI): % relative to 1α,25(OH)2D3 binding (RCI = 100%). The conditions noted are these: for Binding to VDRnuc relative to 1α,25(OH)2 D3 (RCI): 1α,25(OH)2 D3 = 100%, FIG. 8: chick intestine mucosa; for Nuclear 1α,25-D Receptor (RCI): RCI of 1α,25(OH)2 D3 = 100. As to the method: The ability of analogs to mediate genomic responses are directly determined by the ability of the analog in question to bind to the nuclear receptor for 1α,25(OH)2 D3 [VDRnuc ]. This ability is detected by the assay measuring Relative Competitive Index (RCI).
The assay is based upon the principles of a steroid competition assay. A fixed amount of [^3 H]1α,25(OH)2 D3 is mixed with increasing amounts of competitive analogs or the natural hormone, 1α,25(OH)2 D3, and incubated with a VDRnuc receptor preparation from chick intestine mucosa.
Ligand Receptor Competition Assay
This example describes a ligand receptor competitive assay used for determination of an analog's relative ability to bind to VDRnuc expressed as relative competitive index (RCI).
The relative affinity of nonradioactive 1α,25(OH)2 D3 and each analog to compete with [^3 H]1α,25(OH)2 D3 for binding to the VDRnuc of NB4 cells was carried out in vitro. The NB4 cells were collected from a fast growing stage and the cellular VDRnuc of 1α,25(OH)2 D3 were extracted from KTED buffer containing 10 mM Tris-HCl, pH 7.4, 300 mM KCl, 1 mM EDTA and 5 mM DTT. After sonication, the cell extract was further centrifuged at 500× g for 10 min. The supernatant was collected for use in a ligand-receptor binding assay.
In this assay, increasing concentrations (10^-10 to 10^-6 M) of nonradioactive 1α,25(OH)2 D3 or the tested analogs were incubated with NB4 cell extracts in the presence of a fixed saturating amount of 1 pmole of [^3 H]1α,25(OH)2 D3. The reciprocal of the percentage of maximal binding of [^3 H]1α,25(OH)2 D3 was then calculated and plotted as a function of the relative analog concentration versus [^3 H]1α,25(OH)2 D3. […] The competitive index value for each analog is then normalized to the competitive index value of the […], thereby generating the value of Relative Competitive Index (RCI) where the RCI for 1α,25(OH)2 D3 is defined as 100%.
The full description of the assay is found in Methods in Enzymology: Vitamins and Co-Enzymes, Vol. 67, 494-500 , Academic Press, NY(1980); Biochem. Biophys. Res. Commun., 91: 827-834 (1979); and Endocrinology, 139(2): 457-465 (1998).

Another assay deals with VDRmem. Nature of the assay: Rapid response (summary classification). The conditions noted are these: for Rapid Response: Yes/No, Tables 1 and 6.
In another assay the test system is rapid responses (VDRmem). The experiment in a line: Antagonist function (summary classification). The note with it: Yes/No, Tables 1 and 6.

The structures appear in SMILES notation.

With `C=C1/C(=C\C=C2/CCC[C@]3(C)[C@@H]([C@H](C)Cc4cccc(O)c4)CC[C@@H]23)C[C@@H](O)C[C@@H]1O` [DE], in assay [1], the “Binding to VDRnuc relative to 1α,25(OH)2 D3 (RCI)” value amounted to 29% and the “Nuclear 1α,25-D Receptor (RCI)” value is 29. Further, the “Rapid Response” value in the assay on VDRmem is “Yes”. Further, the Antagonist result in the assay on rapid responses (VDRmem) is “No”.
Turning to `C=C1/C(=C\C=C2/CCC[C@]3(C)[C@@H]([C@H](C)CCCC(C)(C)O)CC[C@@H]23)C[C@@H](O)C[C@H]1O` [HL], the “Rapid Response” value with VDRmem is recorded as “No”. The Antagonist result in the assay on rapid responses (VDRmem) was “Yes and blocks or inhibits the action of agonist for rapid responses”.
On to `C[C@H](CCCC(C)(C)O)[C@H]1CC[C@H]2C3=CC=C4C[C@@H](O)C[C@H](O)[C@@]4(C)[C@H]3CC[C@]12C` [JO], for which, in assay [1], the “Nuclear 1α,25-D Receptor (RCI)” value amounted to 0.2. Further, in the assay on VDRmem, the “genomic and/or rapid responses elicited (in words)” value was “elicit solely rapid responses” and the “Rapid Response” value was “Yes”. Besides, the Antagonist entry in the assay with rapid responses (VDRmem) is on record as “No”.
As to `CC1=C(C=C=C2CCC[C@]3(C)[C@@H]([C@H](C)CCCC(C)(C)O)CC[C@@H]23)C[C@@H](O)C[C@@H]1O` [JW], in assay [1], the “Nuclear 1α,25-D Receptor (RCI)” value is on record as 2.6. Further, in the assay on VDRmem, the “Rapid Response” value is recorded as “Yes”. The Antagonist result in the assay on rapid responses (VDRmem) is on record as “No”.
Taken in the same sequence, the figures for `C=C1CC[C@H](O)C/C1=C/C=C1\CCC[C@]2(C)[C@@H]([C@H](C)Cc3cccc(O)c3)CC[C@@H]12` [JY] were 0.001, “Yes” and “No”.
Consider `C[C@H](CCCC(C)(C)O)[C@H]1CC[C@H]2C3=CC=C4C[C@@H](O)C[C@H](O)[C@]4(C)[C@@H]3CC[C@]12C` [JP], for which, in assay [1], the “Nuclear 1α,25-D Receptor (RCI)” value worked out at 0.3. For the same compound, in the assay with VDRmem, the “genomic and/or rapid responses elicited (in words)” value is reported as “elicit solely rapid responses” and the “Rapid Response” value is recorded as “Yes”. The Antagonist result with rapid responses (VDRmem) is “No”.
For the compound `CC1=C(/C=C\C2=CCC[C@@]3(C)[C@@H]2CC[C@@H]3[C@H](C)CCCC(C)(C)O)C[C@@H](O)C[C@@H]1O` [GF], the “Nuclear 1α,25-D Receptor (RCI)” value in assay [1] was determined as 2. Besides, the “Rapid Response” value with VDRmem is reported as “Yes”. Besides, in the assay with rapid responses (VDRmem), the Antagonist entry was “No”.
For the compound `C[C@H](CCCC(C)(C)O)[C@H]1CC[C@H]2C3=CC=C4C[C@@H](O)C[C@H](O)[C@]4(C)[C@H]3CC[C@]12C` [JM], the “Nuclear 1α,25-D Receptor (RCI)” value in assay [1] stood at 0.1. Moreover, in the assay on VDRmem, the “genomic and/or rapid responses elicited (in words)” value is listed as “elicit solely rapid responses” and the “Rapid Response” value is listed as “Yes”. Besides, in the assay with rapid responses (VDRmem), the Antagonist result is “No”.
For the compound `C=C1/C(=C\C=C2/CCC[C@]3(C)[C@@H]([C@H](C)C=C=CC(C)(C)O)CC[C@@H]23)C[C@@H](O)C[C@@H]1O` [HR], in assay [1], the “Binding to VDRnuc relative to 1α,25(OH)2 D3 (RCI)” value was found to be 52% and the “Nuclear 1α,25-D Receptor (RCI)” value was 52. Also, the “Rapid Response” value in the assay on VDRmem is recorded as “Yes”. In addition, in the assay with rapid responses (VDRmem), the Antagonist entry is reported as “No”.
In the case of `C=C1/C(=C\C=C2/CCC[C@]3(C)[C@@H]([C@H](C)C=C=CC(C)(C)O)CC[C@@H]23)C[C@@H](O)C[C@@H]1O` [HQ], the “Nuclear 1α,25-D Receptor (RCI)” value in assay [1] is 21. For the same compound, the “Rapid Response” value in the assay with VDRmem is “Yes”. Also, in the assay on rapid responses (VDRmem), the Antagonist entry is given as “No”.
For the compound `C=C1/C(=C\C=C2/CCC[C@]3(C)[C@@H]([C@H](C)CCCC(C)(C)O)C[C@@H]4C[C@@]243)C[C@@H](O)C[C@@H]1O` [LO], in assay [1], the “Binding to VDRnuc relative to 1α,25(OH)2 D3 (RCI)” value is reported as 98% and the “Nuclear 1α,25-D Receptor (RCI)” value was 98. Further, the “VDRnuc binding / nuclear response (in words)” value in assay [1] (compared with 1α,25(OH)2 D3) is recorded as “as active in generating nuclear responses as is the 1α,25(OH)2 D3”. In addition, in the assay with VDRmem, the “Rapid Response” value is reported as “Yes”. The Antagonist result with rapid responses (VDRmem) is recorded as “No”.
For `C=C1/C(=C\C=C2/CCC[C@]3(C)[C@@H]([C@H](C)Cc4cccc(C(C)(C)O)c4)CC[C@@H]23)C[C@@H](O)C[C@@H]1O` [EV], in assay [1], the “Binding to VDRnuc relative to 1α,25(OH)2 D3 (RCI)” value is reported as 62% and the “Nuclear 1α,25-D Receptor (RCI)” value turned out to be 62. For the same compound, in the assay on VDRmem, the “Rapid Response” value is given as “Yes”. Moreover, the Antagonist entry in the assay on rapid responses (VDRmem) is recorded as “No”.
As for `CC1=C(C=C=C2CCC[C@]3(C)[C@@H]([C@H](C)CCCC(C)(C)O)CC[C@@H]23)C[C@@H](O)C[C@@H]1O` [JV], the “Nuclear 1α,25-D Receptor (RCI)” value in assay [1] came out at 1.6. Besides, the “Rapid Response” value with VDRmem is reported as “Yes”. For the same compound, in the assay with rapid responses (VDRmem), the Antagonist result was “No”.
Take `C=C1CC[C@H](O)C/C1=C/C=C1\CCC[C@]2(C)[C@@H]([C@H](C)Cc3ccc(O)cc3)CC[C@@H]12` [JX]: the “Nuclear 1α,25-D Receptor (RCI)” value in assay [1] is on record as 0.002. The “Rapid Response” value in the assay on VDRmem is “Yes”. Further, the Antagonist result with rapid responses (VDRmem) is “No”.
In the case of `C[C@H](CCCC(C)(C)O)[C@H]1CC[C@H]2C3=CC=C4C[C@@H](O)C[C@H](O)[C@@]4(C)[C@@H]3CC[C@]12C` [JN], the “Nuclear 1α,25-D Receptor (RCI)” value in assay [1] was determined as 1.8. Further, in the assay with VDRmem, the “genomic and/or rapid responses elicited (in words)” value was “elicit solely rapid responses” and the “Rapid Response” value is “Yes”. Also, the Antagonist entry in the assay on rapid responses (VDRmem) is “No”.
Take `C=C1/C(=C\C=C2/CCC[C@]3(C)[C@@H]([C@H](C)Cc4ccc(O)cc4)CC[C@@H]23)C[C@@H](O)C[C@@H]1O` [DF]: in assay [1], the “Binding to VDRnuc relative to 1α,25(OH)2 D3 (RCI)” value worked out at 5% and the “Nuclear 1α,25-D Receptor (RCI)” value stood at 5. Further, the “Rapid Response” value in the assay on VDRmem is “Yes”. Besides, the Antagonist result in the assay with rapid responses (VDRmem) was “No”.

The values are drawn from patent publication US6103709A (priority 1998, dated 2000).
